In patent US20110021621A1, “Drug for treating circulatory insufficiency” (ACTIVUS PHARMA CO., LTD., priority 2005, published 2011):
Where two headings read alike, the source gives them in different places.

Key:
[1] = test system: circulatory insufficiency model of rats induced by injection of lauric-acid into their femoral artery; assay: Circulatory insufficiency model induced by lauric-acid in rats (lesion index); type: in vivo, rat; set-up: key: summed toe lesion grades, +5 if heel reached; max 25 points; settings: male Wistar rats, average, max 25 points; for Lesion Index after 10 days: 30 mg/kg multiple oral dosing (1 h prior to and 3 h after lauric-acid, then twice daily for 9 days), 10 days after lauric-acid injection; for Lesion Index after 3 days: 30 mg/kg multiple oral dosing (1 h prior to and 3 h after lauric-acid, then twice daily), 3 days after lauric-acid injection
Protocol: We performed this test in order to evaluate the pharmacological effect of the compounds of the present invention using a circulatory insufficiency model of rats induced by injection of lauric-acid into their femoral artery.
13-week-old male Wistar rats (body weight is 280 to 316 g), 8 rats per one group, were used. The rats were held in a supine position under anesthesia due to administration of 40 mg/kg of sodium pentobarbital by intraperitoneal injection. Then, the right femoral area was incised, thereby injecting 0.15 mL of 10 mg/mL lauric-acid solution into the femoral artery in order to induce lower limb gangrene caused by the peripheral vascular disorder. A few drops of instant adhesive (Aron-alpha; registered trademark) were used to stop bleeding, followed by topical application of antibiotics (potassium penicillin G solution) to prevent infection, and the incision site was then sutured.
The suspension was administered, by means of multiple oral dosing, 1 hour prior to and 3 hours after injection of lauric-acid and twice daily (at 10:00 and 17:00) for the following 9 days, at the dose of 30 mg/kg for each compound. […] The suspension was administered orally 3 hours prior to injection of lauric-acid at the dose of 300 mg/kg.
The extent of lesions was evaluated 3 days and 10 days after injection of lauric acid by the following criteria:
The lesion of each toe was graded and the total points of 5 toes were use as a lesion index, wherein 5 points were further added when the lesion reached the heel (i.e. the maximum lesion index was 25 points).
The shown number refers to the average value of the lesion index obtained from the evaluation.

[2] = Stability test in acidic or basic solution (half-life by liquid chromatography); type: physicochemical; settings: time to 50% residual rate
Protocol: The test compounds were dissolved in an acidic solution (phosphate buffer (pH3.4)) and in a basic solution (phosphate buffer (pH7.3)) at the concentration of 1 mmoL/L. Immediately after they were dissolved, each solution was analyzed with liquid chromatography using an acidic solution (phosphate buffer (pH3.4)) or basic solution (phosphate buffer (pH7.3)) as an eluent. The peak area of the test compounds was measured as the initial value. Furthermore, a time-course analysis with liquid chromatograpy was conducted to measure the peak area at each time point. The solution containing the test compound was kept in an incubator at 37° C. Based on the measured peak area of the test compounds, the percentage (%) of the peak area at each measurement time point was calculated, taking the peak area of the initial value as 100(%). The half-life (the time to show a 50% residual rate of the test compounds) of the test compounds was further calculated, and its stability was evaluated based on the half-life.

CCCCCCOc1c(O)c2cccc(OCCO)c2oc1=O [Compound 547]
Lesion Index after 10 days [1]: 7.2
Lesion Index after 3 days [1]: 3.0

CCCCCCCCOc1c(O)c2c(OCC(O)CO)cccc2oc1=O (centres unmarked) [Compound 280]
Lesion Index after 10 days [1]: 7.9
Lesion Index after 3 days [1]: 2.7

CCCCCCC=COc1c(O)c2cccc(O)c2oc1=O [Compound 196]
Lesion Index after 10 days [1]: 7.4
Lesion Index after 3 days [1]: 3.3

CCCCCCCCOc1c(O)c2cccc(OCCCC(=O)O)c2oc1=O [Compound 633]
Lesion Index after 10 days [1]: 7.4
Lesion Index after 3 days [1]: 2.6

CC(C)Oc1c(O)c2ccc(O)cc2oc1=O [Compound 120]
Lesion Index after 10 days [1]: 8.0
Lesion Index after 3 days [1]: 2.3

CCCCOc1c(O)c2c(OCCO)cccc2oc1=O [Compound 237]
Lesion Index after 10 days [1]: 7.9
Lesion Index after 3 days [1]: 3.4

CCCCCCCCOc1c(O)c2ccc(OCCCO)cc2oc1=O [Compound 468]
Lesion Index after 10 days [1]: 7.8
Lesion Index after 3 days [1]: 2.8

CC(C)CCCOc1c(O)c2cccc(OCCO)c2oc1=O [Compound 551]
Lesion Index after 10 days [1]: 7.8
Lesion Index after 3 days [1]: 2.5

CCCCC(CC)Oc1c(O)c2ccc(OCCCCO)cc2oc1=O (centres unmarked) [Compound 477]
Lesion Index after 10 days [1]: 7.7
Lesion Index after 3 days [1]: 2.9

CCCCCCCCOc1c(O)c2c(OCCCCC(=O)O)cccc2oc1=O [Compound 333]
Lesion Index after 10 days [1]: 7.4
Lesion Index after 3 days [1]: 3.0

CC(C)=CCCC(C)=CCOc1ccc2c(O)c(OCC=C(C)CCC=C(C)C)c(=O)oc2c1 [Compound 174]
Lesion Index after 10 days [1]: 7.5
Lesion Index after 3 days [1]: 2.7

CCCCCCOc1c(O)c2cccc(OCCCC)c2oc1=O [Compound 214]
Lesion Index after 10 days [1]: 7.9
Lesion Index after 3 days [1]: 3.5

CCCCOc1c(O)c2c(OCCCO)cccc2oc1=O [Compound 261]
Lesion Index after 10 days [1]: 7.6
Lesion Index after 3 days [1]: 3.7

CCCCCCCCOc1c(O)c2ccc(O)cc2oc1=O [Compound 131]
Lesion Index after 10 days [1]: 7.5
Lesion Index after 3 days [1]: 3.0

CCCCOc1c(O)c2c(OCC(=O)O)cccc2oc1=O [Compound 295]
Lesion Index after 10 days [1]: 7.2
Lesion Index after 3 days [1]: 3.0

CCCCOc1c(O)c2cccc(O)c2oc1=O [Compound 179]
Lesion Index after 10 days [1]: 8.4
Lesion Index after 3 days [1]: 3.6

CCCCCCOc1c(O)c2cc(OCCCC)ccc2oc1=O [Compound 98]
Lesion Index after 10 days [1]: 8.4
Lesion Index after 3 days [1]: 3.0

CC(C)CCCOc1c(O)c2ccc(OCCO)cc2oc1=O [Compound 449]
Lesion Index after 10 days [1]: 7.3
Lesion Index after 3 days [1]: 2.8

CCOc1c(O)c2ccc(O)cc2oc1=O [Compound 118]
Lesion Index after 10 days [1]: 8.3
Lesion Index after 3 days [1]: 2.4

CCCCCCOc1c(O)c2cc(OCCC(O)CO)ccc2oc1=O (centres unmarked) [Compound 388]
Lesion Index after 10 days [1]: 7.5
Lesion Index after 3 days [1]: 2.9

CCCCCCCCOc1c(O)c2cc(OCCCC(=O)O)ccc2oc1=O [Compound 429]
Lesion Index after 10 days [1]: 7.9
Lesion Index after 3 days [1]: 2.2

CCCCCCCCOc1c(O)c2ccc(OCCC(O)CO)cc2oc1=O (centres unmarked) [Compound 491]
Lesion Index after 10 days [1]: 7.4
Lesion Index after 3 days [1]: 2.9

CCCCC(CC)Oc1c(O)c2c(OCCO)cccc2oc1=O (centres unmarked) [Compound 244]
Lesion Index after 10 days [1]: 7.4
Lesion Index after 3 days [1]: 3.5

CC(C)CCCOc1c(O)c2cc(OCCO)ccc2oc1=O [Compound 347]
Lesion Index after 10 days [1]: 8.1
Lesion Index after 3 days [1]: 2.3

O=c1oc2ccc(-c3ccccc3)cc2c(O)c1O [C, reference compound]
half-life at 1 mmoL/L ([2]; phosphate buffer pH 3.4, 37° C., read-out: Half-life, pH 3.4 solution (converted)): 35 h
half-life at 1 mmoL/L ([2]; phosphate buffer pH 7.3, 37° C., read-out: Half-life, pH 7.3 solution (converted)): 65 h

CCCCCOc1c(O)c2ccc(O)cc2oc1=O [Compound 123]
Lesion Index after 10 days [1]: 7.9
Lesion Index after 3 days [1]: 2.6

CCCCOc1c(O)c2ccc(O)cc2oc1=O [Compound 121]
Lesion Index after 10 days [1]: 7.3
Lesion Index after 3 days [1]: 2.8

CCCCCCOc1c(O)c2c(O)cccc2oc1=O [Compound 9]
Lesion Index after 10 days [1]: 7.8
Lesion Index after 3 days [1]: 2.5

CCCCCCCCCCOc1c(O)c2ccc(OCC(O)CO)cc2oc1=O (centres unmarked) [Compound 485]
Lesion Index after 10 days [1]: 7.9
Lesion Index after 3 days [1]: 2.8

CCC(CC)Oc1c(O)c2ccc(O)cc2oc1=O [Compound 124]
Lesion Index after 10 days [1]: 8.3
Lesion Index after 3 days [1]: 3.0

CCCCCCOc1c(O)c2cc(O)ccc2oc1=O [Compound 67]
Lesion Index after 10 days [1]: 7.5
Lesion Index after 3 days [1]: 2.8

CC(C)=CCCC(C)=CCOc1c(O)c2ccc(O)cc2oc1=O [Compound 141]
Lesion Index after 10 days [1]: 7.8
Lesion Index after 3 days [1]: 2.6

CCCOc1c(O)c2ccc(O)cc2oc1=O [Compound 119]
Lesion Index after 10 days [1]: 7.1
Lesion Index after 3 days [1]: 2.5

CCCCC(CC)Oc1c(O)c2ccc(OCC(=O)O)cc2oc1=O (centres unmarked) [Compound 506]
Lesion Index after 10 days [1]: 7.3
Lesion Index after 3 days [1]: 2.7
